Test results from the supplement of paper PMC10307832.

How the values were obtained:
Assay in all cases: relative viability (nuclei count vs DMSO), 5 days (fraction); higher = more cells survive
Wnt-C59 + Luminespib = compound: CC1=NC=CC(=C1)C2=CC=C(C=C2)CC(=O)NC3=CC=C(C=C3)C4=CN=CC=C4 [Wnt-C59] + CCNC(=O)c1noc(-c2cc(C(C)C)c(O)cc2O)c1-c1ccc(CN2CCOCC2)cc1 [Luminespib] (partner 0.01 µM)
How it was run: (§1)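 Lung cancer cell lines were seeded in 1536-well plates and dosed by pin tool the next day, with either a single drug or a fixed anchor-drug dose combined with five library-drug doses (not always all listed) spaced in √10 steps. Five days later, one step fixed the cells and stained their nuclei (final 0.05% Triton X-100, 1% formaldehyde, 1 ug/ml Hoechst), and nuclei were counted on 4× images. Relative viability is the nuclei count in treated wells divided by the count in vehicle wells, and each value is the median of duplicate plates.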

Wnt-C59 + OSI-027 = compound: CC1=NC=CC(=C1)C2=CC=C(C=C2)CC(=O)NC3=CC=C(C=C3)C4=CN=CC=C4 [Wnt-C59] + COc1cccc2cc(-c3nc([C@H]4CC[C@H](C(=O)O)CC4)n4ncnc(N)c34)[nH]c12 [OSI-027] (partner 0.5 µM)
How it was run: as §1

Lapatinib = compound: CS(=O)(=O)CCNCc1ccc(-c2ccc3ncnc(Nc4ccc(OCc5cccc(F)c5)c(Cl)c4)c3c2)o1 [Lapatinib]
How it was run: (§2)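 Hoechst staining, done together with fixation and permeabilisation, marked nuclei for 4× imaging and MetaXpress counting. This followed 5 days without medium change after lung cancer cell lines, kept overnight at 37 °C in 1536-well plates, were pinned with five library-drug doses (not always all listed) spaced by √10 on vehicle-anchored plates. Viability is the ratio of treated-well to vehicle-well nuclei, expressed as a median across plates. Plates passed only at control CV below 25% with at least one doubling.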

Wnt-C59 = compound: CC1=NC=CC(=C1)C2=CC=C(C=C2)CC(=O)NC3=CC=C(C=C3)C4=CN=CC=C4 [Wnt-C59]
How it was run: as §2

Row | Cell Line | relative viability (Wnt-C59 + Luminespib; first compound 0.001 µM) | relative viability (Wnt-C59 + Luminespib; first compound 0.01 µM) | relative viability (Wnt-C59 + Luminespib; first compound 0.03162 µM) | relative viability (Wnt-C59 + Luminespib; first compound 0.1 µM) | relative viability (Wnt-C59 + OSI-027; first compound 0.001 µM) | relative viability (Wnt-C59 + OSI-027; first compound 0.01 µM) | relative viability (Wnt-C59 + OSI-027; first compound 0.03162 µM) | relative viability (Wnt-C59 + OSI-027; first compound 0.1 µM) | relative viability (Lapatinib; 0.02 µM) | relative viability (Lapatinib; 0.06325 µM) | relative viability (Lapatinib; 0.2 µM) | relative viability (Lapatinib; 0.6325 µM) | relative viability (Lapatinib; 2 µM) | relative viability (Lapatinib; 2 µM, anchor plate) | relative viability (Wnt-C59; 0.001 µM) | relative viability (Wnt-C59; 0.01 µM) | relative viability (Wnt-C59; 0.03162 µM) | relative viability (Wnt-C59; 0.1 µM)
1 | SW 1573 | 0.227 | 0.398 | 0.37 | 0.177 | 0.684 | 0.659 | 0.63 | 0.639 | 0.952 | 0.896 | 0.992 | 1.06 | 0.896 | 1.12 | 1.02 | 0.967 | 1.1 | 0.91
2 | NCI-H23 | 0.206 | 0.217 | 0.227 | 0.217 | 0.634 | 0.499 | 0.781 | 0.578 | – | – | 1.02 | 1.06 | 0.938 | 1.11 | 0.827 | 0.972 | 1.01 | 1
3 | HCC-15 | 0.399 | 0.297 | 0.287 | 0.369 | 0.641 | 0.718 | 0.647 | 0.752 | – | 0.847 | 1.06 | 1.01 | 0.919 | 0.836 | 1.05 | 1.01 | 1.07 | 0.981
4 | NCI-H1650 | 0.223 | 0.197 | 0.203 | 0.214 | 0.756 | 0.569 | 0.645 | 0.647 | 0.809 | 0.73 | 0.851 | 0.834 | 0.737 | 0.805 | 1.02 | 0.898 | 0.957 | 0.826
5 | LU99A | 0.249 | 0.269 | 0.249 | 0.263 | 0.307 | 0.281 | 0.342 | 0.274 | 0.883 | 0.757 | 0.852 | 0.871 | 0.897 | 1.03 | 0.946 | 0.923 | 1.09 | 0.936
6 | HOP-62 | 0.945 | 0.913 | 0.969 | 0.927 | 0.743 | 0.813 | 0.788 | 0.852 | 0.7 | 1.04 | 1.01 | 1.02 | 1.01 | 1.04 | 0.998 | 1 | 1.06 | 0.953
7 | NCI-H1793 | 0.176 | – | 0.204 | 0.201 | 0.189 | – | 0.287 | 0.266 | – | 0.642 | 0.732 | 0.803 | 0.544 | 0.714 | 0.78 | 0.681 | 1.1 | 0.976
8 | SW 900 | 0.159 | 0.179 | 0.172 | 0.197 | 0.585 | 0.54 | 0.457 | 0.554 | – | 0.765 | 0.958 | 0.836 | 0.712 | – | 0.681 | 0.755 | 0.793 | 0.823
9 | LXF-289 | 0.607 | 0.666 | 0.618 | 0.712 | 0.779 | 0.807 | 0.828 | 0.809 | 0.923 | 0.993 | 0.96 | 0.957 | 0.869 | 0.915 | 0.983 | 0.993 | 0.999 | 0.976
10 | COR-L 105 | 0.913 | 0.609 | 0.823 | 0.645 | 0.916 | 0.696 | 0.635 | 0.632 | 0.828 | 0.8 | 0.857 | 0.598 | 0.381 | 0.367 | 0.992 | 0.948 | 0.94 | 0.921
11 | HCC-827 | 0.7 | 0.693 | 0.645 | 0.698 | 0.877 | 0.724 | 0.9 | 0.761 | 0.91 | 0.983 | 1.05 | 1 | – | – | 1.1 | 1.05 | 1.02 | 1.06
12 | PC-14 | 0.178 | 0.166 | 0.144 | 0.16 | 1.01 | 0.897 | 1.18 | 0.731 | 0.914 | 0.954 | 0.965 | 0.958 | 0.644 | 0.343 | 1.09 | 1.1 | 1 | 1
13 | NCI-H1915 | 0.867 | 0.74 | 0.986 | 0.785 | 0.667 | 0.578 | 0.529 | 0.692 | – | 0.975 | 1 | 0.999 | 0.977 | 0.996 | 0.995 | 0.942 | 0.969 | 1
14 | LCLC-103H | 0.845 | 0.919 | 0.977 | 0.973 | 0.458 | 0.533 | 0.527 | 0.498 | 0.779 | 0.951 | 0.997 | 1.02 | 0.975 | – | 0.959 | 0.986 | 0.987 | 1.03
15 | NCI-H2228 | 0.173 | 0.149 | 0.223 | 0.197 | 0.665 | 0.484 | 0.596 | 0.548 | 0.902 | 0.857 | 0.823 | 1.04 | 0.863 | 1.14 | 1.01 | 0.819 | 0.891 | 0.868
16 | EPLC-272H | 0.309 | 0.519 | 0.389 | 0.302 | 0.345 | 0.231 | 0.332 | 0.236 | – | 0.733 | 0.959 | 1 | 0.783 | 0.993 | 1.01 | 0.886 | 1.15 | 0.987
17 | NCI-H1792 | 0.515 | 0.388 | – | 0.656 | 0.722 | 0.686 | 0.926 | 0.703 | – | – | 0.928 | 1 | 0.762 | 0.919 | 0.918 | 0.921 | 0.705 | 1.07
18 | NCI-H2126 | 0.83 | 1 | 0.991 | 0.892 | 0.718 | 0.655 | 0.7 | 0.682 | – | 0.765 | 0.946 | 0.994 | 0.927 | 0.759 | 1.02 | 0.976 | 1.03 | 1.04
